Experimental data published in US20080272062A1, “BROAD SPECTRUM ANTIMICROBIAL PURIFICATION DEVICES AND METHODS FOR PURIFYING FLUIDS” (WATER VISIONS INTERNATIONAL, INC., priority 2006, published 2008).
Counter-ions that a name gives are not always drawn. Like-named read-outs stand apart in the source and are kept apart here. Marks after values point to notes of the source that are not given here.

How the values were obtained:
Dry bulk density = type: physicochemical; conditions: packed in 50 ml graduated cylinder, vortex agitated
Experimental: The materials were loosely packed into tared 50 ml graduated cylinders and agitated with a vortex mixer to further pack the materials in the cylinders. The weight of the material was determined and then divided by the volume of material to determine the bulk density. The larger value for the dihydrate is due to the significant amorphous fraction of the material that is not present in the pure chlorhexidine. The amorphous particles are smaller than crystals and fill the voids between crystals allowing for a greater packing density of particles, […]

[1] = cited from earlier work
E. coli [2] = test: Gravity flow of inoculum through chlorhexidine base particle bed; type: cell-based; conditions: 40 mL, 6.4 million E. coli, 54 minutes
Experimental: A 40 mL mixture of inocculum comprising 6.4 million E. coli and water was passed by gravity flow through a chlorhexidine base particle bed. It took 54 minutes for the fluid to pass through the particle bed.

[3] = Surface energy, contact angle on dip-coated glass slides; type: physicochemical; parameters: unit not given here
Experimental: Glass slides were cleaned in hot chromic acid, deionized water and blown dry. Two slides were treated with hexamethyldisilazane to lower their surface energy. Solutions of chlorhexidine dihydrate in chloroform/methanol and chlorhexidine in methylene chloride/methanol were prepared. The slides were coated using a dip-coater with a dipping speed of 2.8 mm/min. […] The untreated slides produced very uniform thin films.

Porosity to water = type: physicochemical; conditions: water head 25 cm, cross-sectional area 2.775 cm^2
Experimental: To measure the porosity of the materials to water, samples were placed in a ¾″ inner diameter plastic tube fitted with a plug with a hole in the middle. A wire mesh, on top of the plug, prevented the powder from passing through the plug. Deionized water was passed through the sample until the material was sufficiently packed and a second wire mesh was positioned on top of the sample. Water was added to the tube to a height of 25 centimeters above the plug of material. This height was maintained to plus or minus one cm in order to maintain a constant pressure. The porosity was calculated by calculating the volumetric flow rate (volume/time), multiplying by the cross-sectional area (2.775 cm^2), and dividing by the thickness. Accordingly, the rate should increase proportionally with increases in the cross section and decreases in the thickness.

[4] = Density by suspension in binary solvent system; type: physicochemical; conditions: melted glassy chunk, chlorobenzene/carbon tetrachloride
Description: Chlorhexidine and chlorhexidine dihydrate were melted on a glass slide heated on a hot plate. These glassy materials easily fractured into large chunks. One of these chunks from each sample was used to determine the density of the material. Using a binary solvent system consisting of chlorobenzene (density 1.102 g/cc) and carbon tetrachloride (density […]), the chunk of material was suspended. The solution was adjusted until the particle remained hovering in mid solution without floating to the surface or sinking to the bottom. The resulting solution was weighed in a 10 mL volumetric flask and the density was calculated. The procedure was repeated at least 4 times for each sample.

E. coli [5] = test: Gravity flow of inoculum through chlorhexidine dihydrate particle bed; type: cell-based
Experimental: (§1) Columns having a length of 30.48 cm and diameter of 0.75 in were packed with particle beds comprising chlorhexidine dihydrate having lengths of 1.9 cm, 2.5 cm, and 4.1 cm. A 40 mL mixture of inocculum (comprising 35 million B. subtilis, 91 million E. coli, 130 million R. terrigena, and 100 million A. niger) and water was passed by gravity through the chlorhexidine dihydrate particle bed.

A. niger = test: as above; type: cell-based
Experimental: as §1

B. subtilis = test: as above; type: cell-based
Experimental: as §1

R. terrigena = test: as above; type: cell-based
Experimental: as §1

[6] = Temperature dependence of solubility in water; type: physicochemical
Experimental: The effect of temperature on the solubility of chlorhexidine dihydrate in water was determined by placing a sample of chlorhexidine dihydrate in a 100 mL round bottom flask with 50 mL of deionized water. The round bottom flask contained a stir bar and was placed in an oil bath on a hot plate. The solution was gradually warmed. Aliquots were taken every 15° C. The aliquot was taken from the solution using of a syringe fitted with a micropore filter (Whatman fiberglass filter GF/D, pore size 2.7). The filter separated the solution from the suspended material. The solution was dried in a weigh boat at 60° C. overnight.

E. coli/bacteria = test: Pumped flow through chlorhexidine dihydrate treatment device, Aerobic Plate Count; type: cell-based
Experimental: Dechlorinated city of Atlanta tap water was inoculated with a culture of E. coli/bacteria and pumped through a 0.25 inch chlorhexidine dihvdrate treatment device at a rate of 1 to 2 L/min up to 80 L. Bacterial recovery was determined by Aerobic Plate Count and is shown in Table 9.
Accordingly, the reaction of chlorhexidine dihydrate appears to be of a “catalytic” nature. Conversely, typical applications involving soluble chlorhexidine gluconate result in its consumption and approach a second-order reaction. The same is true for most other known antimicrobial agents. Thus, chlorhexidine dehydrate is particularly suitable for use as a purification material.

[7] = Solubility in solvents (aliquot dried and weighed); type: physicochemical; conditions: 3 days
[8] = Solubility in solvents (aliquot dried and weighed); type: physicochemical; conditions: for Solubility: 7 days
Experimental: A sample of material was placed in a small vial with a few mL of solvent. The solution was stirred by shaking for several hours and then allowed to sit for a week equilibrating.
A 1 mL aliquot drawn from the solution using an Eppendorf pipette was placed in a weigh boat and dried in an oven. The dried sample was weighed. Measurements of the alcohol and water solvents were taken after three hours of mixing and again after a week. At the three hour measurement, it was necessary to centrifuge the sample in order to separate the solvent solution from the particulate matter.

all microorganisms = test: Treatment of influent contaminated water stream with particle bed of insoluble chlorhexidine dihydrate; type: cell-based
Description: The composition of chlorhexidine dihydrate produced mortality in all microorganisms with a minimum or greater mean 10-log reduction upon treatment of an influent contaminated water stream with a particle bed of insoluble chlorhexidine dihydrate. While it is known that soluble chlorhexidine salts are bactericidal for some microorganisms, the purification materials embodied herein require insoluble antimicrobial agents. Thus, the previously known chlorhexidine salts are unacceptable for use in the purification materials embodied herein.

[9] = Water/Ethanol (50:50, 30.0 dyne/cm)
[10] = Water/Ethanol (70:30, 36.1 dyne/cm)
[11] = Water/Ethanol (90:10, 51.3 dyne/cm)
[12] = bed 2.5 cm, flow time 2.0 minutes
[13] = bed 4.1 cm, flow time 1.5 hours

For `[H]/N=C(\N/C(=N/[H])NCCCCCCNC(=N)NC(=N)Nc1ccc(Cl)cc1)Nc1ccc(Cl)cc1` [Chlorhexidine, N,N″Bis(4-chlorophenyl)-3,12-diimino-2,4,11,13-tetrazatetradecanediimideamide, reference compound], the “Bulk Density” value (Dry bulk density) is given as 0.64 g/cc, the Solubility ([1]; reported by Block, Disinfection, Sterilization, and Preservation, 2001) is given as 0.0008% and the Solubility ([1]; reported by Merck Index) is given as 0.08%. For the same compound, the “reduction in E. coli” value (E. coli [2]) was “greater than 99.999%”, the “Mean Contact Angle” value ([3]; Water (72.2 dyne/cm)) was 10.28 and the “Mean Contact Angle” value [3, 9] was 0. The “Mean Contact Angle” value [3, 10] was 13.5, the “Mean Contact Angle” value [3, 11] was 15.3 and the Porosity (Porosity to water) was 3.60 mL cm^2/min/cm. For the same compound, the Density [4] was 1.270 ± .001 g/cc.
In the case of `[H]/N=C(\N/C(=N/[H])NCCCCCCNC(=N)NC(=N)Nc1ccc(Cl)cc1)Nc1ccc(Cl)cc1` [Chlorhexidine hydrochloride, chlorhexidine hydrochloride], the “Bulk Density” value (Dry bulk density) is reported as 0.15 g/cc.
For `N=C(NCCCCCCNC(=N)NC(=N)Nc1ccc(Cl)cc1)NC(=N)Nc1ccc(Cl)cc1.O.O` [Chlorhexidine dihydrate, chlorhexidine dihydrate], the “Bulk Density” value (Dry bulk density) was 0.70 g/cc, the “% Reduction” value (E. coli [5]; bed 1.9 cm, flow time 1.0 hour) was greater than 99.999% and the “Effluent (1.9 cm)” value (E. coli [5]; bed 1.9 cm, inoculum 91 × 10^6, flow time 1.0 hour) was less than 1000. The “% Reduction” value (E. coli [5]; [12]) was greater than 99.999%, the “Effluent (2.5 cm)” value (E. coli [5]; bed 2.5 cm, inoculum 91 × 10^6, flow time 2.0 minutes) was less than 1000 and the “% Reduction” value (E. coli [5]; [13]) was greater than 99.999%. For the same compound, the “Effluent (4.1 cm)” value (E. coli [5]; bed 4.1 cm, inoculum 91 × 10^6, flow time 1.5 hours) was less than 1000, the “% Reduction” value (A. niger; bed 1.9 cm, flow time 1.0 hour) was greater than 99.9% and the “Effluent (1.9 cm)” value (A. niger; bed 1.9 cm, inoculum 100 × 10^6, flow time 1.0 hour) was less than 1000. The “% Reduction” value (A. niger; [12]) was 99.2%, the “Effluent (2.5 cm)” value (A. niger; bed 2.5 cm, inoculum 100 × 10^6, flow time 2.0 minutes) was 8000 and the “% Reduction” value (A. niger; [13]) was greater than 99.9%. The “Effluent (4.1 cm)” value (A. niger; bed 4.1 cm, inoculum 100 × 10^6, flow time 1.5 hours) was less than 1000, the “% Reduction” value (B. subtilis; bed 1.9 cm, flow time 1.0 hour) was greater than 99.997% and the “Effluent (1.9 cm)” value (B. subtilis; bed 1.9 cm, inoculum 35 × 10^6, flow time 1.0 hour) was less than 1000. For the same compound, the “% Reduction” value (B. subtilis; [12]) was 99.6%, the “Effluent (2.5 cm)” value (B. subtilis; bed 2.5 cm, inoculum 35 × 10^6, flow time 2.0 minutes) was 14 × 10^5 and the “% Reduction” value (B. subtilis; [13]) was greater than 99.997%. For the same compound, the “Effluent (4.1 cm)” value (B. subtilis; bed 4.1 cm, inoculum 35 × 10^6, flow time 1.5 hours) was less than 1000, the “% Reduction” value (R. terrigena; bed 1.9 cm, flow time 1.0 hour) was greater than 99.999% and the “Effluent (1.9 cm)” value (R. terrigena; bed 1.9 cm, inoculum 130 × 10^6, flow time 1.0 hour) was less than 1000. For the same compound, the “% Reduction” value (R. terrigena; [12]) was greater than 99.999%, the “Effluent (2.5 cm)” value (R. terrigena; bed 2.5 cm, inoculum 130 × 10^6, flow time 2.0 minutes) was less than 1000 and the “% Reduction” value (R. terrigena; [13]) was greater than 99.999%. For the same compound, the “Effluent (4.1 cm)” value (R. terrigena; bed 4.1 cm, inoculum 130 × 10^6, flow time 1.5 hours) was less than 1000, the Solubility in water ([6]; 30 ° C.) was 460 µg/mL and the Solubility in water ([6]; 45 ° C.) was 740 µg/mL. The Solubility in water ([6]; 60 ° C.) was 780 µg/mL, the Solubility in water ([6]; 75 ° C.) was 920 µg/mL and the Solubility in water ([6]; 90 ° C.) was 890 µg/mL. The “Solubility (in words)” value ([6]; hot and cold water) was “very limited solubility”, the “inactivation of E. coli” value (E. coli/bacteria; 1 to 2 L/min up to 80 L, 0.25 inch thickness disc) was 100% and the “Total Aerobic Plate Count” value (E. coli/bacteria; 20 L run through device, untreated 8.6 × 10^8, 1 to 2 L/min) was 10 # colonies/mL. For the same compound, the “Total Aerobic Plate Count” value (E. coli/bacteria; 40 L run through device) was <10 # colonies/mL, the “Total Aerobic Plate Count” value (E. coli/bacteria; 60 L run through device) was <10 # colonies/mL and the “Total Aerobic Plate Count” value (E. coli/bacteria; 80 L run through device) was <10 # colonies/mL. It also gave a Solubility ([7]; Ethanol) of 1700 µg/mL, a Solubility ([7]; Iso-propanol) of 900 µg/mL and a Solubility ([7]; Methanol) of 3600 µg/mL. The Solubility ([7]; Water) was less than 500 µg/mL, the Solubility ([8]; Chloroform) was 5600 µg/mL and the Solubility ([8]; Ethanol) was 600 µg/mL. The Solubility ([8]; Ethyl Acetate) was 10000 µg/mL, the Solubility ([8]; Iso-propanol) was 400 µg/mL and the Solubility ([8]; MIBK) was 21100 µg/mL. It also gave a Solubility ([8]; Methanol) of 2800 µg/mL, a Solubility ([8]; Methylene Chloride) of 5600 µg/mL and a Solubility ([8]; Water) of less than 400 µg/mL. For the same compound, the “Solubility (in words)” value ([8]; hot methanol, chloroform, methylene chloride, and ketones) was “appreciable solubility”, the “Mean Contact Angle” value ([3]; Water (72.2 dyne/cm)) was 7.08 and the “Mean Contact Angle” value [3, 9] was 0. The “Mean Contact Angle” value [3, 10] was 18.44, the “Mean Contact Angle” value [3, 11] was 13.08 and the Porosity (Porosity to water) was 7.55 mL cm^2/min/cm. For the same compound, the “mean log reduction (mortality in all microorganisms)” value (all microorganisms) was no less than 10 log and the Density [4] was 1.266 ± .001 g/cc.
